For orientation: Kb means the affinity of an antagonist, worked out from how it opposes an agonist.

SMILES strings stand for the structures. Where a name gives a salt, the structure may show the parent alone. Read-outs that look alike come from different tables or passages of the source.

We go through seven compounds from patent US5328922A, “Indole ureas as 5 ht receptor antagonist” (priority 1990, dated 1994).

The target of one assay is T1, 5-HT1C binding site (Sus scrofa, UniProt K7GSR7).
T1 construct: Pooled pig choroid plexi were homogenised; from tissue; host or cells: pig choroid plexus membranes
T1 sequence (K7GSR7 1-457): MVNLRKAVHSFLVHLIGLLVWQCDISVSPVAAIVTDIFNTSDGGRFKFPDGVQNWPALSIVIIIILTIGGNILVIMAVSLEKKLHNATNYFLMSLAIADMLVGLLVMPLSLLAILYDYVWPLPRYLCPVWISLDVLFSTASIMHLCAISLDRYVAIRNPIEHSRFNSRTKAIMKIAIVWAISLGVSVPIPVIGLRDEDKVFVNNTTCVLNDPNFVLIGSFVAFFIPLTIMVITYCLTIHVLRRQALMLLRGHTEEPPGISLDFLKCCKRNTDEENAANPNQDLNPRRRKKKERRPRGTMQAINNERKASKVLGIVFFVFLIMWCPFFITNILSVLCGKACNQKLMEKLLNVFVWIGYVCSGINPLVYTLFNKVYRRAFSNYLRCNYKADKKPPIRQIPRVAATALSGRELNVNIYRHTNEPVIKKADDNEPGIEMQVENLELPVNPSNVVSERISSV
Description: [^3 H]-mesulergine binding to pig choroid plexus membranes in vitro. From the text:
[^3 H]-mesulergine binding to pig choroid plexus membranes in vitro
(Curzon and Kennett, 1990; Fozard and Gray, 1989) and Alzheimer's Disease (Lawlor, 1989, J. Arch. Gen. Psychiat. Vol. 46 p.542).
The affinity of test drugs for the 5-HT1C binding site can be determined by assessing their ability to displace [^3 H]-mesulergine from 5-HT1C binding sites in pig choroid plexus membranes. The method employed was similar to that of Pazos et al, 1984.
Pooled pig choroid plexi were homogenised in 20 vols of Tris HCl buffer (pH7.4) (containing 4 mM CaCl2 and 0.01% ascorbic acid) and centrifuged at 50,000 g for 15 rain at 4° C. The supernatant was removed and re-centrifuged. This was repeated a further two times with the incubation of the homogenate (37° C. for 15 min) before the final centrifugation. The final pellet was resuspended in 20 vols of buffer and stored at -70° C. until use.
The tissue suspension (50 μl) was incubated with [^3 H]-mesulergine (2 nM) in Tris HCl buffer (pH7.4) at 37° C. (containing 0.01% ascorbic acid, 4 mM CaCl2) and 3×10^-8 M spiperone for 30 minutes. Non-specific binding was measured in the presence of mianserin (10^-6 M). Six concentrations of test drug (10^-9 to 10^-4 M final concentration) were added in a volume of 50 μl. The total assay volume was 500 μl. Incubation was stopped by rapid filtration using a Skatron cell harvester and radioactivity measured by liquid scintillation spectrometry. The IC50 values were determined and the pKi (the negative logarithm of the inhibition constant) calculated from the Cheng Prusoff equation where [formula] wherein: Ki =inhibition constant.
C=concentration of [^3 H]-mesulergine
Kd=Affinity of mesulergine for 5-HT1C binding sites.
Curzon, G. A. and Kennett, G. A. (1990). TIPS, Vol. 11, 181-182. Fozard, J. R. and Gray, J. A. (1989). TIPS, Vol. 10, 307-309. Pazos, A. et al. (1984). Eur. J. Pharmacol., 106, 531-538.

Assay [1] addresses T2, 5-HT receptor that has the characteristics of a 5-HT1C receptor (Rattus norvegicus, UniProt P30994).
T2 construct: from tissue; host or cells: rat stomach fundus strips
Description: Rat stomach fundus: 5-HT1C antagonist action (inhibition of 5-HT-induced contractions). The note with it: rat stomach strips; test drug 10^-6 M for 30 mins; 5-HT dose-response; read-out: apparent dissociation constant, KB. The method, then: 5-Hydroxytryptamine (5-HT) induces contractions of the rat stomach fundus through a 5-HT receptor that has the characteristics of a 5-HT1C receptor (Blackburn et al, 1990).
Rat stomach strips (6×4 mm) were suspended under a 4 g tension in 5 ml baths containing Tyrode solution, gassed with a mixture of 95% O2 /5% CO2. After a 1 hour equilibration period, two dose response curves were constructed to 5-HT (final concentrations, 10^-9 to 3×10^-6 M). Test drugs were then incubated at a final concentration of 10^-6 M for 30 mins and another dose-response curve constructed to 5-HT. The apparent dissociation constant of a test drug, KB, can be calculated from the equation where [formula] where B=concentration of the test drug and DR=the dose ratio (the factor by which the concentration of the agonist has to be increased in the presence of the test drug to obtain an identical effect observed in the absence of the test drug).

A short description of assay [2]: Social Interaction Test (potential anxiolytic properties). The format is in vivo, rat. The note with it: male rats; p.o. 1 h pretest; doses of 2-40 mg/kg. From the text:
Potential anxiolytic properties have been evaluated using the social interaction test based on that described by File (1980 J. Neurosci. Meth., 2, 219). Active social interaction between male rats is usually quantitated by counting interactive behaviours such as following, grooming, sniffing, climbing over or under, biting, mounting and boxing. This behaviour is supressed when the rats encounter each other in an environment which is novel and brightly lit. Under these circumstances anxiolytic drugs will enhance the level of social interaction.
Rats were housed in groups of 8 in a holding room adjacent to the experimental chamber for 8 days. They were then housed singly in the same room for 3 days prior to the experimental day. On the experimental day rats were injected p.o. 1 h pretest with vehicle or drug in pairs at 15 min intervals beginning at 10.00 am. 60 Mins later they were placed with a weight matched pair mate (encountered for the first time) in the social interaction box in a separate room. The box was made of while perspex 54×37×26 cm with no lid. The floor was divided into 24 equal squares and the cage was brightly lit. Active social interaction was scored blind over the next 15 min by remote video monitoring to give total interaction scores. The number of squares crossed by each rat was also scored and summed. […]

The nature of assay [3]: Geller-Seifter Procedure (potential anxiolytic properties). In kind it is in vivo, rat. The following applies: rats; 30 min before testing; dose levels in the range 5-40 mg/kg p.o. How it is done: Potential anxiolytic properties are evaluated using the Geller-Seifter procedure based on that originally described by Geller and Seifter, (1960) Psychopharmacologia, 1, 482-492.
Rats are trained on a variable interval 30 sec schedule (VI30) to press a lever in order to obtain food reward. The 5 min sessions of the VI30 schedule alternate with 2-5 min of a schedule (FR5) in which every 5th lever press is followed by presentation of a food pellet paired with a 0.5 sec mild footshock. The total study lasts approximately 30 mins. Rats typically respond with high rates of lever pressing under the VI30 schedule and low response rates under the FR5 `conflict` session. Anxiolytic drugs increase the suppressed response rates of rats in a `conflict` session.
Drugs are administered intraperitoneally or orally to groups of 3-8 rats 30 min before testing.
The results are expressed as the percentage increase in the square root of the total number of lever presses in the FR5 `conflict` session. Square root transformation is necessary to normalise the data for statistical analysis using parametric methods.

Assay [4] deals with rat stomach fundus serotonin receptor. The note with it: P. Fludzinski et. al., J. Med. Chem. 1986 29 2415-2418; cited from earlier work.

T2 sequence (P30994 whole entry): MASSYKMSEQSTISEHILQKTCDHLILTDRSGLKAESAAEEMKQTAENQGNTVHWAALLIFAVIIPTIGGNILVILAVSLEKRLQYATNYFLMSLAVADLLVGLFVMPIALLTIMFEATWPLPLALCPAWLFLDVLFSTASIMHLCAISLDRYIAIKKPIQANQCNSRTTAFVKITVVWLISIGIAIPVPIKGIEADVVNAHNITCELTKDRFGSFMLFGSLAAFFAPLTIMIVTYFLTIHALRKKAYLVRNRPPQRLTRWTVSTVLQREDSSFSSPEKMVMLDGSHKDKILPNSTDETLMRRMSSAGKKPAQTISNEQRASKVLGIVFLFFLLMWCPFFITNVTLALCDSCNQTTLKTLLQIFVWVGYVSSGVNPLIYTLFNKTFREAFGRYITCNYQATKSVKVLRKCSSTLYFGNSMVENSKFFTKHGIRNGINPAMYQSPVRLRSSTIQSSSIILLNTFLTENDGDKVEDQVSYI

`CCc1c(C)n(C)c2ccc(NC(=O)Nc3cccnc3)cc12` [E1, N-(1,2-Dimethyl-3-ethyl-1H-indol-5-yl)-N'-(3-pyridyl)urea hydrochloride] had a Ki on 5-HT1C binding site of 0.0251 µM. In addition, the Kb in assay [1] was determined as 0.032 µM.

As for `Cl.Cn1ccc2cc(NC(=O)Nc3cccnc3)ccc21` [E2, N-(1-Methyl-1H-indol-5-yl)-N'-(3-pyridyl)urea hydrochloride], the Ki on 5-HT1C binding site ([^3 H]-mesulergine 2 nM, pig choroid plexus membranes, 3×10^-8 M spiperone, pH7.4, 37° C., 30 minutes, pKi from IC50 by Cheng Prusoff equation, read-out: [^3 ]-Mesulergine pKi (converted)) was 0.158 µM. For the same compound, the Kb in assay [1] came out at 0.1 µM. For the same compound, in assay [2], the social interaction entry was “significant increase in social interaction”. For the same compound, in assay [3], the “responding in the `conflict` session (percentage increase in square root of total lever presses in FR5)” value is recorded as “significant increase in responding in the `conflict` session”.

At 5-HT1C binding site, `Cc1c(C)n(C)c2ccc(NC(=O)Nc3cccnc3)cc12` [E3, N-(1,2,3-Trimethyl-1H-indol-5-yl)-N'-(3-pyridyl)urea hydrochloride] had a Ki of 0.2 µM. Further, in assay [1], the antagonist dissociation constant (Kb) stood at 0.025 µM.

Consider `CCCn1ccc2cc(NC(=O)Nc3cccnc3)ccc21` [E4, N-(1-Propyl-1H-indol-5-yl)-N'-(3-pyridyl)urea oxalate], for which the Ki at 5-HT1C binding site is 0.2 µM. Further, the Kb in assay [1] was 0.4 µM.

Take `Cn1ccc2c(NC(=O)Nc3cccnc3)cccc21` [E5, N-(1-Methyl-1H-indol-4-yl)-N'-(3-pyridyl)urea hydrochloride]: the Ki at 5-HT1C binding site was 0.2 µM. Moreover, in assay [1], the Kb is 0.25 µM.

`Cn1ccc2ccc(NC(=O)Nc3cccnc3)cc21` [E6, N-(1-Methyl-1H-indol-6-yl)-N'-(3-pyridyl)urea hydrochloride] gave a Ki on 5-HT1C binding site of 0.316 µM. Besides, the Kb in assay [1] stood at 0.17 µM.

Consider `CCc1c(C)n(C)c2ccc(NC(=O)Nc3cccc(C(F)(F)F)c3)cc12` [N-(1,2-dimethyl-3-ethyl-1H-indol-5-yl)-N'-(3-trifluoromethylphenyl)urea], for which the “selectivity for the rat stomach fundus serotonin receptor” value in assay [4] is listed as “shows selectivity for the rat stomach fundus serotonin receptor”.
